Read-outs that look alike come from different tables or passages of the source.
How the values were obtained:
hERG channel = target: T1, hERG channel (Homo sapiens, UniProt Q12809); experiment: hERG channel inhibition assay (patch-clamp, CHOhERG cells); type: cell-based; conditions: for safety window (hERG IC20/TLR7/8/9 IC50) compared to the compounds of this invention: result in words; for hERG IC20/TLR7 IC50 / hERG IC20/TLR9 IC50 / hERG IC20/TLR8 IC50: safety ratio
T1 construct: expressed in transfected cells; host or cells: CHO (Chinese hamster ovary)
Procedure: hERG Channel Inhibition Assay:
The hERG K^+ channels were cloned in humans and stably expressed in a CHO (Chinese hamster ovary) cell line. CHOhERG cells were used for patch-clamp (voltage-clamp, whole-cell) experiments. Cells were stimulated by a voltage pattern to activate hERG channels and conduct IKhERG currents (rapid delayed outward rectifier potassium current of the hERG channel). After the cells were stabilized for a few minutes, the amplitude and kinetics of IKhERG were recorded at a stimulation frequency of 0.1 Hz, (6 bpm). Thereafter, the test compound was added to the preparation at increasing concentrations. For each concentration, an attempt was made to reach a steady-state effect, usually, this was achieved within 3-10 min at which time the next highest concentration was applied. The amplitude and kinetics of IKhERG are recorded in each concentration of the drug which were compared to the control values (taken as 100%). (references: Redfern W S, Carlsson L, Davis A S, Lynch W G, MacKenzie I, Palethorpe S, Siegl P K, Strang I, Sullivan A T, Wallis R, Camm A J, Hammond T G. 2003; Relationships between preclinical cardiac electrophysiology, clinical QT interval prolongation and torsade de pointes for a broad range of drugs: evidence for a provisional safety margin in drug development. Cardiovasc. Res. 58:32-45, Sanguinetti M C, Tristani-Firouzi M. 2006; hERG potassium channels and cardiac arrhythmia. Nature 440:463-469, Webster R, Leishman D, Walker D. 2002; Towards a drug concentration effect relationship for QT prolongation and torsades de pointes. Curr. Opin. Drug Discov. Devel. 5:116-26).

hTLR9 [1] = target: T2, hTLR9 (Homo sapiens, UniProt Q9NR96); design: host or cells: HEK; conditions: data disclosed in US20150105370; read-out: HEK/hTLR9 IC50; cited from earlier work
T2 sequence (Q9NR96 26-1032): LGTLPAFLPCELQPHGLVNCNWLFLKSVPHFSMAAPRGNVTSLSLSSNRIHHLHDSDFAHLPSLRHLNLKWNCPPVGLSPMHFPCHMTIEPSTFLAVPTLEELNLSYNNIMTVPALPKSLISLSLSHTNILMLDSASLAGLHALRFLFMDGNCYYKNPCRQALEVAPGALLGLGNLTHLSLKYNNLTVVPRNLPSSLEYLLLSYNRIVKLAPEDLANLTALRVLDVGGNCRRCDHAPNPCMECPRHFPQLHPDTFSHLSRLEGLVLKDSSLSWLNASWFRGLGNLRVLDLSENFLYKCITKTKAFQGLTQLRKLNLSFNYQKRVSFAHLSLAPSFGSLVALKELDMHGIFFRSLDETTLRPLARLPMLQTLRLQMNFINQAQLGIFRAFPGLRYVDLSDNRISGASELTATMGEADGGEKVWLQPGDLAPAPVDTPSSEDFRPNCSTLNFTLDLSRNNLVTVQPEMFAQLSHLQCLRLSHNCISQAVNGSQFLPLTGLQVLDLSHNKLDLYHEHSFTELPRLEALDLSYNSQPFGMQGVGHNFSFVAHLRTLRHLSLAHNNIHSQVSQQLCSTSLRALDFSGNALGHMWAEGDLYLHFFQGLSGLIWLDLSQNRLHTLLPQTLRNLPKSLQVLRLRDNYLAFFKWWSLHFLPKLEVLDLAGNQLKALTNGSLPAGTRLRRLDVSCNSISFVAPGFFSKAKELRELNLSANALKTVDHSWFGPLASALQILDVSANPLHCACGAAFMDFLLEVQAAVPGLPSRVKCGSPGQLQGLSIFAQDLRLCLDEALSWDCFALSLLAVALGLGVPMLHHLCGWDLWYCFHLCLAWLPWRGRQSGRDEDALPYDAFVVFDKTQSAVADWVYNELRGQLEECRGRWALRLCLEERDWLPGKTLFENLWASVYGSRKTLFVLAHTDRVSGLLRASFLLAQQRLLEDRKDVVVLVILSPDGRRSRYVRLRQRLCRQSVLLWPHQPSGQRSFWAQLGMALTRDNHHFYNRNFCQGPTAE

human TLR7 = target: T3, human TLR7 (Homo sapiens, UniProt Q9NYK1); experiment: HEK293-Blue-hTLR-7 cells assay (SEAP reporter, R848 stimulation); type: cell-based; conditions: HEK293-Blue-hTLR7 cells, R848, 20 hrs; read-out: HEK/hTLR7 IC50
T3 construct: host or cells: HEK293 (HEK-Blue hTLR7)
T3 sequence (Q9NYK1 27-1049): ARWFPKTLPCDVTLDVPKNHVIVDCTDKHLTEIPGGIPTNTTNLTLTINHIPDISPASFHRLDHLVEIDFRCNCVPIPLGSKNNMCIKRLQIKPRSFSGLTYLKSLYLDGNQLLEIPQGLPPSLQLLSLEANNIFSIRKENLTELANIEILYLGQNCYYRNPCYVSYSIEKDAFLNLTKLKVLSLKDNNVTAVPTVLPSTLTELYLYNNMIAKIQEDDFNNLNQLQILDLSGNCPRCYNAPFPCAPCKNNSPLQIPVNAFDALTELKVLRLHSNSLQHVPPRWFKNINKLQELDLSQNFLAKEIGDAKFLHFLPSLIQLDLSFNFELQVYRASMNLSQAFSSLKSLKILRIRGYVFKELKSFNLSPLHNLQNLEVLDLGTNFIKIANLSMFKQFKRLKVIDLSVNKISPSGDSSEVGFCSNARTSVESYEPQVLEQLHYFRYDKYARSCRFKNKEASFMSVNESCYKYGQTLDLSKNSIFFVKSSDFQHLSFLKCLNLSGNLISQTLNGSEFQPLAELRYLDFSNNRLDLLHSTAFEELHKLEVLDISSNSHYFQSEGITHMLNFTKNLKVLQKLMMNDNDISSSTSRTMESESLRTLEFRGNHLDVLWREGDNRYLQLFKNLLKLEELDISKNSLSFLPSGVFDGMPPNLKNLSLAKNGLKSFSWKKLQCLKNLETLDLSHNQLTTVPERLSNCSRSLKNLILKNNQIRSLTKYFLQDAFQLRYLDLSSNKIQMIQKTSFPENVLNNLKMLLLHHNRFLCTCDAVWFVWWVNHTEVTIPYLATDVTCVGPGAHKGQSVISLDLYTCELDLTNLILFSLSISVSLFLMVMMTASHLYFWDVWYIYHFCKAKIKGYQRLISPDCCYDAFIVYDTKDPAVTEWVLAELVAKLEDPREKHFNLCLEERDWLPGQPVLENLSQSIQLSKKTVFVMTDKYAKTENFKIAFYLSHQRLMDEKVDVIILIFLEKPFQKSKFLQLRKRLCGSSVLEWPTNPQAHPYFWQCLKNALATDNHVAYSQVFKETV
Excerpt: HEK293-Blue-hTLR-7 Cells Assay:
(§1) A stable HEK293-Blue-hTLR-7 cell line was purchased from InvivoGen (Cat. #: hkb-ht1r7, San Diego, Calif., USA). These cells were originally designed for studying the stimulation of human TLR7 by monitoring the activation of NF-κB. A SEAP (secreted embryonic alkaline phosphatase) reporter gene was placed under the control of the IFN-β minimal promoter fused to five NF-κB and AP-1-binding sites. The SEAP was induced by activating NF-κB and AP-1 via stimulating HEK-Blue hTLR7 cells with TLR7 ligands. Therefore the reporter expression was declined by TLR7 antagonist under the stimulation of a ligand, such as R848 (Resiquimod), for incubation of 20 hrs. The cell culture supernatant SEAP reporter activity was determined using QUANTI-Blue™ kit (Cat. #: rep-qb1, Invivogen, San Diego, Ca, USA) at a wavelength of 640 nm, a detection medium that turns purple or blue in the presence of alkaline phosphatase.
HEK293-Blue-hTLR7 cells were incubated at a density of […] cells/mL in a volume of 170 μL in a 96-well plate in Dulbecco's Modified Eagle's medium (DMEM) containing 4.5 g/L glucose, 50 U/mL penicillin, […], […], 2 mM L-glutamine, 10% (v/v) heat-inactivated fetal bovine serum with addition of 20 μL test compound in a serial dilution in the presence of final DMSO at 1% and 10 μL of 20 uM R848 in above DMEM, perform incubation under 37° C. in a CO2 incubator for 20 hrs. Then 20 μL of the supernatant from each well was incubated with 180 μL Quanti-blue substrate solution at 37° C. for 2 hrs and the absorbance was read at 620˜655 nm using a spectrophotometer. The signaling pathway that TLR7 activation leads to downstream NF-κB activation has been widely accepted, and therefore similar reporter assay was modified for evaluating TLR7 antagonist.

hTLR9 [2] = target: T2, hTLR9; experiment: HEK293-Blue-hTLR-9 cells assay (SEAP reporter, ODN2006 stimulation); type: cell-based; design: host or cells: HEK293 (HEK-Blue hTLR9); conditions: HEK293-Blue-hTLR9 cells, ODN2006, 20 hrs; read-out: HEK/hTLR9 IC50
Excerpt: HEK293-Blue-hTLR-9 Cells Assay:
as §1, with “HEK293-Blue-hTLR-9” for “HEK293-Blue-hTLR-7”, “hkb-htlr9,” for “hkb-ht1r7,”, “TLR9” for “TLR7”, “hTLR9” for “hTLR7”, “ODN2006 (Cat. #: tlrl-2006-1, Invivogen, San Diego, Calif., USA),” for “R848 (Resiquimod),”, “Calif.,” for “Ca,”
HEK293-Blue-hTLR9 cells were incubated at a density of 250,000˜450,000 cells/mL in a volume of 170 μL in a 96-well plate in Dulbecco's Modified Eagle's medium (DMEM) containing 4.5 g/L glucose, 50 U/mL penicillin, […], 2 mM L-glutamine, 10% (v/v) heat-inactivated fetal bovine serum with addition of 20 μL test compound in a serial dilution in the presence of final DMSO at 1% and 10 μL of 20 uM ODN2006 in above DMEM, perform incubation under 37° C. in a CO2 incubator for 20 hrs. Then 20 μL of the supernatant from each well was incubated with 180 μL Quanti-blue substrate solution at 37° C. for 2 h and the absorbance was read at 620-655 nm using a spectrophotometer. The signaling pathway that TLR9 activation leads to downstream NF-κB activation has been widely accepted, and therefore similar reporter assay was modified for evaluating TLR9 antagonist.

T1 sequence (Q12809 whole entry): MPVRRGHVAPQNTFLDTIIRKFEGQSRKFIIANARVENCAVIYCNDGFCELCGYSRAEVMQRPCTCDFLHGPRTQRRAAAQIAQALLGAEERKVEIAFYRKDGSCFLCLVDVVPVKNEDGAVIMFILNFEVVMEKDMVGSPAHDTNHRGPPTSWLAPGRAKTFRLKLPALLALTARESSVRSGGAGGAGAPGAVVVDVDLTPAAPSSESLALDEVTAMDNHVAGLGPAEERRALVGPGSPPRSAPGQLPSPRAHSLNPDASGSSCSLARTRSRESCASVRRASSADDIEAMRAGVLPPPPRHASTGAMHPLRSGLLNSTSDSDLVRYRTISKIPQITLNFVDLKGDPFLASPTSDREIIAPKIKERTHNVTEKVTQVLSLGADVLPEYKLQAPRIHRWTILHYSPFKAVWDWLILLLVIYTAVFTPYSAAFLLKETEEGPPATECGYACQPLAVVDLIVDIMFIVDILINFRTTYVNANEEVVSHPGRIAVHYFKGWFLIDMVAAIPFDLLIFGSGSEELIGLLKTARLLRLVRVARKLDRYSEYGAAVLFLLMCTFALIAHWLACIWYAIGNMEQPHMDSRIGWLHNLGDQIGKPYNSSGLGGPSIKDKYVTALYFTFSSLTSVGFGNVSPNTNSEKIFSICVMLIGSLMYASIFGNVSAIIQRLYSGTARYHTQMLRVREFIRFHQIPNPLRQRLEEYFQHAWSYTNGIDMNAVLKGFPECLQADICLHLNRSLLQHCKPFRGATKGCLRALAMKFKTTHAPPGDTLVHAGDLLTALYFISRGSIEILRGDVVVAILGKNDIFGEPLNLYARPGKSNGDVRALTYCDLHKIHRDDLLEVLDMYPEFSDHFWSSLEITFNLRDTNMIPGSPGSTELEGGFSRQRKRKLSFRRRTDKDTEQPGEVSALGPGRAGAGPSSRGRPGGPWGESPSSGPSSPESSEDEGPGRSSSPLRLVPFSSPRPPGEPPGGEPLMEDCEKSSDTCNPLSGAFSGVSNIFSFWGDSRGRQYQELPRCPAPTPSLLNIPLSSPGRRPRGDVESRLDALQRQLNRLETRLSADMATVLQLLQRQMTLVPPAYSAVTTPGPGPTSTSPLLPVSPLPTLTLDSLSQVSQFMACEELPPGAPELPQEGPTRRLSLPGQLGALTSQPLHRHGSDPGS

C[C@@H]1CN(c2ccc(C#N)c3ncccc23)C[C@H](CN2CCN(c3ccccc3)CC2)O1 [ER-887258, reference compound]
safety window (hERG IC20/TLR7/8/9 IC50) compared to the compounds of this invention (hERG channel): much narrower safety window
hERG IC20/TLR7 IC50 (hERG channel): 8.1
hERG IC20/TLR9 IC50 (hERG channel): 0.3
IC50 (hTLR9 [1]): > 2 µM

C[C@@H]1CN(c2ccc(C#N)c3ncccc23)C[C@H](CN2CCN(c3ccccn3)CC2)O1 [ER-888285, reference compound]
safety window (hERG IC20/TLR7/8/9 IC50) compared to the compounds of this invention (hERG channel): much narrower safety window
hERG IC20/TLR7 IC50 (hERG channel): 8.4
hERG IC20/TLR9 IC50 (hERG channel): 0.5
IC50 (hTLR9 [1]): > 2 µM

C[C@@H]1CN(c2ccc(C#N)c3ncccc23)C[C@H](CN2CC(NS(=O)(=O)c3ccc(F)cc3)C2)O1 [ER-894155]
IC50 (hTLR9 [1]): > 10 µM

Cc1nn(C)cc1S(=O)(=O)NC1CCN(C[C@H]2CN(c3ccc(C#N)c4ncccc34)C[C@@H](C)O2)CC1 [ER-894160]
IC50 (hTLR9 [1]): > 10 µM

C[C@@H]1CN(c2ccc(C#N)c3ncccc23)C[C@H](CN2CC[C@@H](NC(=O)c3ccccc3)C2)O1 [ER-894544]
IC50 (hTLR9 [1]): > 6.2 µM

[2H]c1nc2c(C#N)ccc(N3C[C@H](CN4CCN(c5nc(C)cc(N6C[C@H](OC)[C@@H](N)C6)n5)CC4)O[C@H](C)C3)c2nc1[2H] [Example 105, 8-[(2S,6R)-2-[[4-[4-[(3S,4S)-3-amino-4-methoxy-pyrrolidin-1-yl]-6-methyl-pyrimidin-2-yl]piperazin-1-yl]methyl]-6-methyl-morpholin-4-yl]-2,3-dideuterio-quinoxaline-5-carbonitrile]
IC50 (human TLR7): 0.013 µM
IC50 (hTLR9 [2]): 0.069 µM

COc1ccc(N2CCN(C[C@H]3CN(c4ccc(C#N)c5ncccc45)C[C@@H](C)O3)CC2)cc1 [Example R1, 5-[(2S,6R)-2-[[4-(4-methoxyphenyl)piperazin-1-yl]methyl]-6-methyl-morpholin-4-yl]quinoline-8-carbonitrile, reference compound]
safety window (hERG IC20/TLR7/8/9 IC50) compared to the compounds of this invention (hERG channel): much narrower safety window
hERG IC20/TLR7 IC50 (hERG channel): 9.3
hERG IC20/TLR8 IC50 (hERG channel): 6.2
hERG IC20/TLR9 IC50 (hERG channel): 0.1

C[C@@H]1CN(c2ccc(C#N)c3ncccc23)C[C@H](CN2CCN(c3ccc(Cl)cc3)CC2)O1 [Example R2, 5-[(2S,6R)-2-[[4-(4-chlorophenyl)piperazin-1-yl]methyl]-6-methyl-morpholin-4-yl]quinoline-8-carbonitrile, reference compound]
safety window (hERG IC20/TLR7/8/9 IC50) compared to the compounds of this invention (hERG channel): much narrower safety window
hERG IC20/TLR7 IC50 (hERG channel): 1.3
hERG IC20/TLR8 IC50 (hERG channel): 0.8
hERG IC20/TLR9 IC50 (hERG channel): 0.04
